In ChEMBL document CHEMBL1148398, “Design, synthesis, and biological evaluation of thio-containing compounds with serum HDL-cholesterol-elevating properties” (2004) one finds Serum level data, which are given here for one compound.

This assay has as its system Cricetinae gen. sp. Kind of assay: Effect of compound on triglycerides level in 4th group of cholesterol-fed male hamsters at 100 mg/kg/day after 14 days of treatment. The note with it: Mesocricetus auratus.

`CCN1CC(=O)N(c2cc(Cl)ccc2C)C1=S`: the Serum level is 342 mg/dL.
